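Cultured in 96-well plates, cells were exposed to test compound for 48 hours across five concentrations. GI50: concentration for 50% inhibition of growth. TGI: total growth inhibition.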
What was measured:
Experiment in all cases: growth of human tumour cells (NCI), 48 h
IGROV1 ovarian = test system: IGROV1 ovarian
HOP-62 NSCLC = test system: HOP-62 NSCLC
OVCAR-5 ovarian = test system: OVCAR-5 ovarian
M14 melanoma = test system: M14 melanoma
786-0 renal = test system: 786-0 renal
COLO 205 colon = test system: COLO 205 colon
UO-31 renal = test system: UO-31 renal
A549 NSCLC = test system: A549 NSCLC
HL-60(TB) leukemia = test system: HL-60(TB) leukemia
RXF 393 renal = test system: RXF 393 renal

| Structure (SMILES) | TGI (IGROV1 ovarian) [µM] | TGI (HOP-62 NSCLC) [µM] | TGI (OVCAR-5 ovarian) [µM] | TGI (M14 melanoma) [µM] | TGI (786-0 renal) [µM] | TGI (COLO 205 colon) [µM] | TGI (UO-31 renal) [µM] | TGI (A549 NSCLC) [µM] | TGI (HL-60(TB) leukemia) [µM] | TGI (RXF 393 renal) [µM] | GI50 (IGROV1 ovarian) [µM] | GI50 (HOP-62 NSCLC) [µM] | GI50 (OVCAR-5 ovarian) [µM] | GI50 (M14 melanoma) [µM] | GI50 (786-0 renal) [µM] | GI50 (COLO 205 colon) [µM] | GI50 (UO-31 renal) [µM] | GI50 (A549 NSCLC) [µM] | GI50 (HL-60(TB) leukemia) [µM] | GI50 (RXF 393 renal) [µM] |
| --- | --- | --- | --- | --- | --- | --- | --- | --- | --- | --- | --- | --- | --- | --- | --- | --- | --- | --- | --- | --- |
| COc1ccc(CN2CCC/C=C/CC(Cl)(Cl)C2=O)cc1 | > 100 | > 100 | > 100 | 57 | > 100 | 41.2 | 57.4 | > 100 | 69.2 | 78.7 |  |  |  |  |  |  |  |  |  |  |
| COc1ccc(OC)c(Cn2cc3c(c2-c2ccccc2)CCc2cnoc2-3)c1 | > 100 | > 100 | > 100 | > 100 | > 100 | > 100 | > 100 | > 100 | 6.52 | > 100 | 6.11 | 9.13 | 10.8 | 4.82 | 6.09 | 6.31 | 6.38 | 5.75 | 2.03 | 6.12 |
| Cc1nc(C(N)=S)sc1C(=O)/C=C/c1c(O)ccc2ccccc12 | > 100 | > 100 | > 100 | > 100 | > 100 | > 100 | > 100 | > 100 | 65.3 | 98.5 |  |  |  |  |  |  |  |  |  |  |
| O=C(O)[C@H](c1ccccc1)[C@@H](C(=O)O)c1ccccc1 | > 100 | > 100 | > 100 | > 100 | > 100 | > 100 | > 100 | > 100 | > 100 | > 100 |  |  |  |  |  |  |  |  |  |  |
| CC(=O)O[C@H]1CCc2c(cc(N)c3c2C(=O)C[C@]2(C)C([C@H](C)CCCC(C)C)CCC32C)C1(C)C (stereo not given in full) | > 100 | > 100 | > 100 | > 100 | > 100 | > 100 | > 100 | > 100 | > 100 | > 100 |  |  |  |  |  |  |  |  |  |  |
| CCCCn1c(-c2ccc(C(=O)O/N=C(\N)c3ccc4c(c3)OCO4)cc2)nc(-c2ccccc2)c1-c1ccccc1 | 1.8 | 4.03 | > 100 | 17.5 | 6.15 | 11 | 0.562 | 5.22 | 2.75 | 4.93 | 0.465 | 1.82 | 4.77 | 2.85 | 2.5 | 2.69 | 0.229 | 1.92 | 0.603 | 1.85 |
| C=C1C(=O)O[C@H]2[C@H]1CC/C(C=Nc1c(N)cc(C(F)(F)F)cc1Br)=C\CC[C@@]1(C)O[C@@H]21 | 3.01 | 4.82 | 3.75 | 3.55 | 3.91 | 3.16 | 2.52 | 5.11 | 2.48 | 3.11 | 1.42 | 2.17 | 1.83 | 1.71 | 2.14 | 1.6 | 1.26 | 2.03 | 0.397 | 1.59 |
| C/C(=N/NC(=O)C[N+](C)(C)C)C(CN(C)C)C(=O)Nc1ccccc1 (stereo not given) | > 100 | > 100 | > 100 | > 100 | > 100 | > 100 | > 100 | > 100 | > 100 | > 100 |  |  |  |  |  |  |  |  |  |  |
| O=S(=O)(CCCl)c1ccc(Cl)cc1 | 7.44 | 30.6 | 14.2 | 22.2 | 21.4 | 11.7 | 8.16 | 45.6 | 9.79 | 8.96 | 2.41 | 15.7 | 3.56 | 5.18 | 6.41 | 3.74 | 2.45 | 13 | 2.36 | 2.32 |
| CSC(=S)N/N=C/c1nccc2ccccc12 | 8.05 | 10.1 | 8.96 | 4.87 | 12.6 | 1.58 | 9.4 | 9.87 | 6.69 | 6.01 |  |  |  |  |  |  |  |  |  |  |
| Cc1cc(N(CCC#N)CCC#N)ccc1/C=C(\NC(=O)/C=C/c1ccccc1)C(=O)NN | > 100 | > 90.3 | > 100 | > 100 | > 100 | > 100 | > 100 | > 100 | > 100 | > 92.3 |  |  |  |  |  |  |  |  |  |  |
| O=C1OCC2=C1C(c1ccccc1)c1cc3c(cc1N2CCO)OCO3 (stereo not given) | > 50 | > 50 | > 50 | 23.3 | > 50 | 17.1 | > 50 | > 50 | > 50 | 35.7 | 2.91 | 4.08 | 13.4 | 1.92 | 3.54 | 2.71 | 27.8 | 14.7 | 3.46 | 8.03 |
| COc1ccc2[nH]c3c(c2c1)[C@H](C)C[C@@H]1C(=O)N(c2ccccc2)C(=O)[C@H]31 | > 100 | 52.5 | > 100 | > 100 | 48.5 | > 100 | > 100 | 62.4 | > 100 | 53.1 |  |  |  |  |  |  |  |  |  |  |
| O=C(N[C@@H](C[Se][Se]C[C@H](NC(=O)c1ccc(Br)cc1F)C(=O)O)C(=O)O)c1ccc(Br)cc1F | > 100 | > 100 | > 100 | > 100 | > 100 | > 100 | > 100 | > 100 | > 100 | > 100 | > 100 | > 100 | > 100 | > 100 | > 100 | > 100 | > 100 | > 100 | > 100 | > 100 |
| CSC(=NCCc1c[nH]c2ccccc12)NC#N | > 100 | > 100 | > 100 | > 100 | > 100 | > 100 | > 100 | > 100 | > 100 | > 100 |  |  |  |  |  |  |  |  |  |  |

Reference: PubChem BioAssay (NCI)
